Activity coefficient data for seven compounds are collected here from the NIST ThermoML archive (doi:10.1016/j.fluid.2012.05.006).

This series in a line: activity coefficient (dimensionless); of the first substance listed, at infinite dilution; xn = mol fraction of the nth substance listed. As to conditions: Liquid, Chromatography, x1 = 0.

Molecules are shown by their SMILES. Numbers after ± are expanded uncertainties.

As for `CCCCC` [pentane] + CCCCCCCCn1cc[n+](C)c1.O=[N+]([O-])[O-], the activity coefficient is, setting by setting: (303.15 K) 8.5 ± 0.3; (313.15 K) 7.8 ± 0.28; (323.15 K) 7.45 ± 0.26; (333.15 K) 6.94 ± 0.25; (343.15 K) 6.46 ± 0.23; (353.15 K) 6.19 ± 0.22. Also, the activity coefficient (363.15 K) stood at 5.77 ± 0.21.
For the compound `CCCO` [propan-1-ol] + CCCCCCCCn1cc[n+](C)c1.O=[N+]([O-])[O-], the activity coefficient worked out at 0.41 ± 0.09 (313.15 K); 0.4 ± 0.09 (323.15 K); 0.38 ± 0.09 (333.15 K); 0.37 ± 0.09 (343.15 K); 0.36 ± 0.09 (353.15 K); 0.35 ± 0.09 (363.15 K).
Regarding `CC(C)O` [propan-2-ol] + CCCCCCCCn1cc[n+](C)c1.O=[N+]([O-])[O-], the activity coefficient reads like this: (303.15 K) 0.44 ± 0.09; (313.15 K) 0.43 ± 0.09; (323.15 K) 0.43 ± 0.09; (333.15 K) 0.42 ± 0.09; (343.15 K) 0.41 ± 0.09; (353.15 K) 0.41 ± 0.09. Moreover, the activity coefficient (363.15 K) came to 0.4 ± 0.09.
For the compound `ClC(Cl)(Cl)Cl` [tetrachloromethane] + CCCCCCCCn1cc[n+](C)c1.O=[N+]([O-])[O-], the activity coefficient runs as follows: (303.15 K) 1.16 ± 0.09; (313.15 K) 1.2 ± 0.09; (323.15 K) 1.24 ± 0.09; (333.15 K) 1.27 ± 0.1; (343.15 K) 1.3 ± 0.1; (353.15 K) 1.35 ± 0.1. For the setting “363.15 K”, the activity coefficient is 1.39 ± 0.1.
`C1CCOC1` [tetrahydrofuran] + CCCCCCCCn1cc[n+](C)c1.O=[N+]([O-])[O-]: the activity coefficient (303.15 K) was 1.03 ± 0.09; the activity coefficient (313.15 K) came to 1.02 ± 0.09; the activity coefficient (323.15 K) was 1.01 ± 0.09; the activity coefficient (333.15 K) worked out at 1 ± 0.09; the activity coefficient (343.15 K) turned out to be 0.99 ± 0.09; the activity coefficient (353.15 K) was 0.98 ± 0.09. Also, the activity coefficient (363.15 K) worked out at 0.97 ± 0.09.
With `Cc1ccccc1` [toluene] + CCCCCCCCn1cc[n+](C)c1.O=[N+]([O-])[O-], the activity coefficient (303.15 K) amounted to 1.41 ± 0.1; the activity coefficient (313.15 K) worked out at 1.41 ± 0.1; the activity coefficient (323.15 K) came out at 1.42 ± 0.1; the activity coefficient (333.15 K) worked out at 1.43 ± 0.1; the activity coefficient (343.15 K) worked out at 1.44 ± 0.1; the activity coefficient (353.15 K) came out at 1.45 ± 0.1. The activity coefficient (363.15 K) worked out at 1.46 ± 0.1.
For `ClC(Cl)Cl` [trichloromethane] + CCCCCCCCn1cc[n+](C)c1.O=[N+]([O-])[O-], the activity coefficient by setting is: (303.15 K) 0.17; (313.15 K) 0.18; (323.15 K) 0.19 ± 0.09; (333.15 K) 0.2 ± 0.09; (343.15 K) 0.21 ± 0.09; (353.15 K) 0.22 ± 0.09. Also, the activity coefficient (363.15 K) worked out at 0.23 ± 0.09.
